# Experimental data as given in patent US20250243180A1, “TARGETED PROTEIN DEGRADATION” (Monte Rosa Therapeutics AG, priority 2023, published 2025).
# pIC50: −log10 of the molar value.
# Columns and labels:
# [1] = test system: IL-1β; assay: Ex vivo whole blood stimulation (LPS/nigericin) IL-1β ELISA after dosing of NHP; assay type: in vivo, cynomolgus monkeys; conditions: oral 5 mg/kg for 5 days
# Procedure: Within 0.5 h of blood collection from animals that received vehicle or Compound 14 at 5 mg/kg, whole blood was aliquoted into two 0.25 mL aliquots. One aliquot was used as baseline, and the other as the ex vivo stimulated condition. For stimulation, whole blood was incubated with 100 ng/mL Lipopolysaccharide from Escherichia coli 0111:B4 (LPS-EB) for 3 h, followed by 10 μM nigericin for 2 h. Plasma was then isolated and concentrations of IL-1β in plasma isolated from ex vivo whole blood stimulation were measured using the IL-1β ELISA R&D Systems kit (Cat. #DY1318), with 50 μL per sample diluted with 50 μL reagent diluent/well. After reading absorbance on plate reader, standard curve and sample IL-1β levels were analyzed using 4PL method. […]
# In Table 9, suppression of ex vivo inflammasome activation following degradation of NEK7 in NHP is reported. Whole blood was isolated at the indicated time points from NHP dosed orally 5 mg/kg of Compound 14 over 5 days (day 1 through 5), n=2. Days 10 and 15 correspond to recovery period, 5 or 10 days after drug administration, respectively. Whole blood was stimulated ex vivo with 100 ng/mL LPS for 3 h and 10 μM nigericin for 2 h. Plasma was isolated and IL-1β was measured by ELISA. […]
# [2] = test system: Caspase-1 activity; assay: Caspase-1 activity in human monocyte-derived macrophages, LPS/MSU stimulation; assay type: cell-based
# Procedure: (§1) Human monocytes were enriched and isolated from a buffy coat of whole blood with a RosetteSep™ Human Monocyte Enrichment Cocktail (Cat.No. 15068, StemCell) and Ficoll-Plaque PLUS (Cat.No. H8889, Sigma). Monocytes were differentiated into macrophages by treatment with 100 ng/mL M-CSF for 6 days at 37° C., 5% CO2. Differentiated macrophages were seeded overnight (50,000 cells/well) in 100 μL of medium in a 96-well white-bottom plate at 37° C., 5% CO2. Cells were treated with a concentration range of MGD or the NLRP3 inhibitor selnoflast (Cat.No. HY-132831, MedChemExpress) for 24 h prior to stimulation with monosodium urate crystals (MSU). Macrophages were stimulated with […] lipopolysaccharide (LPS) and 0.2 mg/mL MSU for 6 h. Medium of stimulated macrophages were collected and assayed for caspase-1 activity directly (Promega G9951) as well as IL-1β (Promega W6010), according to manufacturer's instructions.
# (§2) (a, b) Human monocyte-derived macrophages pre-treated with a dose-response of Compound 14 or selnoflast (NLRP3 inhibitor) for 24 h and stimulated with a combination of lipopolysaccharide (LPS) and monosodium urate crystals (MSU) for 6 h prior to supernatant collection. Monocytes were isolated from eight human donors. Caspase-1 (a) and IL-1β (b) in the supernatant are measured and data are expressed as percentage relative to mean values of DMSO conditions for each donor (technical triplicates). Means of eight donors are plotted and analyzed using a four-parameter logistic regression model.
# [3] = test system: IL-1β; assay: IL-1β in human monocyte-derived macrophages, LPS/MSU stimulation; assay type: cell-based; conditions: 24 h pre-treatment, LPS + MSU 6 h, eight donors
# Procedure: as §1, §2
# [4] = Plasma pharmacokinetics in NHP, 30 mg/kg oral for 7 days; assay type: in vivo; conditions: oral 30 mg/kg daily for 7 days, average male and female
# Procedure: (§3) Naïve NHP were orally administered with 7 consecutive daily dose of Compound 14 at 30 mg/kg, n=4 per dose group, 2 male and 2 female. Compound formulation was prepared on the day of administration in 0.5% methyl cellulose (4000 cps) in water and animals were fed twice a day; water was available ad libitum. Plasma collected posted dose on Day 1 and Day 7 were analyzed using a non GLP LC/MS/MS bioanalytical method to evaluate the compound concentration. Brain samples were harvested 24 h after final dose. Lysates for different brain regions (hippocampus, frontal cortex, and cerebellum) were prepared in M-PER lysis buffer and diluted at total protein concentration of 0.4 mg/mL in 0.1× sample buffer (12-230 kDa detection module; Protein Simple). The anti-NEK7 rabbit mAb (Abcam #AB133514) was used at 1:100 and anti-β-actin rabbit mAb (CST #5125) was used at 1:500. Samples were probed for NEK7 and β-actin protein levels by JESS, and quantified relative to vehicle control.
# In Table 10, concentration of Compound 14 in NHP plasma following administration via oral gavage after 7 days post dose at 30 mg/kg is reported. NHP received daily oral administration of 30 mg/kg of Compound 14 for 7 days, n=2.
# [5] = test system: NEK7; assay: NEK7 degradation in the brain of NHP (JESS); assay type: in vivo; conditions: oral 30 mg/kg for 7 days; for Average percent NEK7/β-actin in brain, relative to vehicle: 24 h after final dose
# Procedure: as §3
# In Table 11, NEK7 protein degradation in brains of NHP following oral dosing of Compound 14 is reported. NHP received daily oral administration of 30 mg/kg of Compound 14 or vehicle for 7 days. For Compound 14 group, n=4 (two male and two female); for vehicle, n=2; samples taken 24 h post-final dose. Brains were harvested 24 h after final dose, sectioned by region (hippocampus, frontal cortex, cerebellum), and analyzed for NEK7 and beta-actin protein levels by JESS. The average percent of NEK7 was quantified by brain region and normalized to β-actin.
# [6] = both sexes, monkey, plasma, po, 30 mg/kg
# [7] = both sexes, non-human primate (NHP)
smiles,measurement,setting,value
"Cc1cnc(C(C)(C)C(=O)NCc2cc(Cl)c(C3CCC(=O)NC3=O)c(Cl)c2)nc1 (stereo not shown) [Compound 14, N-(3,5-dichloro-4-(2,6-dioxopiperidin-3-yl)benzyl)-2-methyl-2-(5-methylpyrimidin-2-yl)-propanamide]",Percent IL-1β relative to predose,"[1]; Day 1, 6 h",1%
same,Percent IL-1β relative to predose,"[1]; Day 1, 24 h",45%
same,Percent IL-1β relative to predose,"[1]; Day 5, 6 h",0%
same,Percent IL-1β relative to predose,"[1]; Day 5, 24 h",78%
same,Percent IL-1β relative to predose,"[1]; Day 10, 24 h (recovery)",91.5%
same,Percent IL-1β relative to predose,"[1]; Day 15, 24 h (recovery)",141%
same,Caspase-1 activity Imax,"[2]; 24 h pre-treatment, LPS + MSU 6 h, eight donors",81%
same,pIC50,"[2]; Homo sapiens, Macrophage, 24 h pre-treatment, LPS + MSU 6 h, eight donors",8.80
same,inhibition of NLRP3-driven activation of human macrophages,[2]; LPS/MSU stimulation,dose-dependent inhibition
same,IL-1β Imax,[3],70%
same,pIC50,"[3]; Homo sapiens, Macrophage",8.96
same,Cmax,"[4]; both sexes, monkey",6600 ng/mL
same,Tmax,"[4]; both sexes, monkey",1.75 h
same,AUC0-24h,[4]; [6],36600 ng·h/mL
same,AUC(0-t),[4]; [6],27200 ng·h/mL
same,Cmax,[4]; [7],6600 ng/mL
same,Tmax,[4]; [7],1.75 h
same,tlast,[4],8 h
same,degradation of NEK7 across three different brain regions,[5],around 80%
same,"Average percent NEK7/β-actin in brain, relative to vehicle",[5]; Cerebellum,18.2%
same,"Average percent NEK7/β-actin in brain, relative to vehicle",[5]; Frontal Cortex,20.3%
same,"Average percent NEK7/β-actin in brain, relative to vehicle",[5]; Hippocampus,21.3%
